The source of these data is patent US12594276B2, “Inhibitors of human immunodeficiency virus replication” (ViiV Healthcare UK (No.5) Limited, priority 2024, dated 2026).

In data set [1] the test system is recombinant NL4-3 virus (nef section replaced with Renilla luciferase gene) in MT-2 cells. Kind of data set: HIV cell culture assay (antiviral activity, luciferase readout). In kind it is cell-based. Particulars: Renilla, NL43, MT-2 cells infected for 4-5 days with recombinant NL4-3 Renilla luciferase virus. Summed up:
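EC50 was derived by median-effect fitting of Renilla luciferase signal from MT-2 cells. These cells were infected for 4–5 days with NL4-3 reporter virus (nef partly replaced by luciferase; made in 293T cells) in the presence of serially diluted compound. Activity was quantified with a live-cell luciferase substrate.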

Data set [2] in a line: Compound cytotoxicity, XTT-based colorimetric assay. In kind it is cell-based. The following applies: human; uninfected MT2 cells, day 4, XTT; read-out: CC50. Summed up: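 Follows the antiviral assay procedure, but with uninfected MT2 cells. On day 4, cell viability is measured by XTT-based colorimetry, giving CC50 values.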

Each structure is given as a SMILES string. Some results are limits rather than exact numbers.

For `Cc1cc(C2(F)CCC(F)(F)CC2)nc2nc([C@H](Cc3cc(F)cc(F)c3)NC(=O)Cn3nc(C4CC4)c4c3C[C@@H]3C[C@H]43)n(-c3ccc(Cl)c4c(NS(C)(=O)=O)nn([C@H](C)C(=O)N5C[C@@H](C)O[C@@H](C)C5)c34)c(=O)c12` (relative stereo) [Example 744, N-[(1S)-1-[(3P)-3-{4-chloro-1-[(2R)-1-[(2R,6S)-2,6-dimethylmorpholin-4-yl]-1-oxopropan-2-yl]-3-methanesulfonamido-1H-indazol-7-yl}-5-methyl-4-oxo-7-(1,4,4-trifluorocyclohexyl)-3H,4H-pyrido[2,3-d]pyrimidin-2-yl]-2-(3,5-difluorophenyl)ethyl]-2-[(2R*,4R*)-9-cyclopropyl-7,8-diazatricyclo[4.3.0.0^2,^4]nona-1(6),8-dien-7-yl]acetamide], the EC50 in data set [1] came out at 0.017 nM. The CC50 at 4 days in data set [2] is greater than 20 nM.

Take `Cc1cc(C2CCC(F)(F)CC2)nc2nc([C@H](Cc3cc(F)cc(F)c3)NC(=O)Cn3nc(C4CC4)c4c3C[C@@H]3C[C@H]43)n(-c3ccc(Cl)c4c(NS(C)(=O)=O)nn(CCN5CCCC(F)(F)C5)c34)c(=O)c12` (atropisomer, axis not shown; (P)) [Example 2, N-[(1S)-1-[(3P)-3-{4-chloro-1-[2-(3,3-difluoropiperidin-1-yl)ethyl]-3-methanesulfonamido-1H-indazol-7-yl}-7-(4,4-difluorocyclohexyl)-5-methyl-4-oxo-3H,4H-pyrido[2,3-d]pyrimidin-2-yl]-2-(3,5-difluorophenyl)ethyl]-2-[(2S,4S)-9-cyclopropyl-7,8-diazatricyclo[4.3.0.0^2,^4]nona-1(6),8-dien-7-yl]acetamide]: the EC50 in data set [1] is 0.008 nM. For the same compound, in data set [2], the CC50 at 4 days is greater than 50 nM.

`CS(=O)(=O)Nc1nn(CCN2CCC3(CC2)COC3)c2c(-n3c([C@H](Cc4cc(F)cc(F)c4)NC(=O)Cn4nc(C(F)F)c5c4C(F)(F)[C@@H]4C[C@H]54)nc4nc(C5CCC(F)(F)CC5)ccc4c3=O)ccc(Cl)c12` (atropisomer, axis not shown; (P)) [Example 170, N-[(1S)-1-[(3P)-3-[4-chloro-3-methanesulfonamido-1-(2-{2-oxa-7-azaspiro[3.5]nonan-7-yl}ethyl)-1H-indazol-7-yl]-7-(4,4-difluorocyclohexyl)-4-oxo-3H,4H-pyrido[2,3-d]pyrimidin-2-yl]-2-(3,5-difluorophenyl)ethyl]-2-[(2S,4R)-9-(difluoromethyl)-5,5-difluoro-7,8-diazatricyclo[4.3.0.0^2,^4]nona-1(6),8-dien-7-yl]acetamide]: the EC50 in data set [1] was determined as 0.032 nM. Further, the 50% cytotoxic concentration (CC50) at 4 days in data set [2] is greater than 50 nM.

Regarding `COCCCn1nc(NS(C)(=O)=O)c2c(Cl)ccc(-n3c([C@H](Cc4cc(F)cc(F)c4)NC(=O)Cn4nc(C5CC5)c5c4C[C@@H]4C[C@H]54)nc4nc(C5CCC(F)(F)CC5)cc(CN5CC(F)(F)C5)c4c3=O)c21` (atropisomer, axis not shown; (P)) [Example 603, N-[(1S)-1-[(3P)-3-[4-chloro-3-methanesulfonamido-1-(3-methoxypropyl)-1H-indazol-7-yl]-5-[(3,3-difluoroazetidin-1-yl)methyl]-7-(4,4-difluorocyclohexyl)-4-oxo-3H,4H-pyrido[2,3-d]pyrimidin-2-yl]-2-(3,5-difluorophenyl)ethyl]-2-[(2S,4S)-9-cyclopropyl-7,8-diazatricyclo[4.3.0.0^2,^4]nona-1(6),8-dien-7-yl]acetamide], the EC50 in data set [1] came out at 0.004 nM. In data set [2], the CC50 at 4 days was greater than 20 nM.

Regarding `Cc1cc(C2CCC(F)(F)CC2)nc2nc([C@H](Cc3cc(F)cc(F)c3)NC(=O)Cn3nc(C4CC4)c4c3C[C@@H]3C[C@H]43)n(-c3ccc(Cl)c4c(NS(C)(=O)=O)nn(CC(=O)N5CC(C)(C)OC(C)(C)C5)c34)c(=O)c12` (atropisomer, axis not shown; (P)) [Example 396, N-[(1S)-1-[(3P)-3-{4-chloro-3-methanesulfonamido-1-[2-oxo-2-(2,2,6,6-tetramethylmorpholin-4-yl)ethyl]-1H-indazol-7-yl}-7-(4,4-difluorocyclohexyl)-5-methyl-4-oxo-3H,4H-pyrido[2,3-d]pyrimidin-2-yl]-2-(3,5-difluorophenyl)ethyl]-2-[(2S,4S)-9-cyclopropyl-7,8-diazatricyclo[4.3.0.0^2,^4]nona-1(6),8-dien-7-yl]acetamide], the EC50 in data set [1] was 0.02 nM. In data set [2], the CC50 at 4 days was greater than 20 nM.

On to `COCCCn1nc(NS(C)(=O)=O)c2c(Cl)ccc(-n3c([C@H](Cc4cc(F)cc(F)c4)NC(=O)Cn4nc(C5CC5)c5c4C[C@@H]4C[C@H]54)nc4nc(C5CCC(F)(F)CC5)cc(C)c4c3=O)c21` (atropisomer, axis not shown; (P)) [Example 87, N-[(1S)-1-[(3P)-3-[4-chloro-3-methanesulfonamido-1-(3-methoxypropyl)-1H-indazol-7-yl]-7-(4,4-difluorocyclohexyl)-5-methyl-4-oxo-3H,4H-pyrido[2,3-d]pyrimidin-2-yl]-2-(3,5-difluorophenyl)ethyl]-2-[(2S,4S)-9-cyclopropyl-7,8-diazatricyclo[4.3.0.0^2,^4]nona-1(6),8-dien-7-yl]acetamide], for which, in data set [1], the EC50 stood at 0.019 nM. In data set [2], the cytotoxic concentration (CC50) at 4 days is greater than 50 nM.

Consider `CS(=O)(=O)Nc1nn(CCN2CCC(F)CC2)c2c(-n3c([C@H](Cc4cc(F)cc(F)c4)NC(=O)Cn4nc(C(F)F)c5c4C(F)(F)[C@@H]4C[C@H]54)nc4nc(C5CCC(F)(F)CC5)cc(C(F)F)c4c3=O)ccc(Cl)c12` (atropisomer, axis not shown; (P)) [Example 370, N-[(1S)-1-[(3P)-3-{4-chloro-1-[2-(4-fluoropiperidin-1-yl)ethyl]-3-methanesulfonamido-1H-indazol-7-yl}-7-(4,4-difluorocyclohexyl)-5-(difluoromethyl)-4-oxo-3H,4H-pyrido[2,3-d]pyrimidin-2-yl]-2-(3,5-difluorophenyl)ethyl]-2-[(2S,4R)-9-(difluoromethyl)-5,5-difluoro-7,8-diazatricyclo[4.3.0.0^2,^4]nona-1(6),8-dien-7-yl]acetamide], for which, in data set [1], the half-maximal effective concentration (EC50) stood at 0.009 nM. In addition, the CC50 at 4 days in data set [2] is greater than 20 nM.

On to `COCCCn1nc(NS(C)(=O)=O)c2c(Cl)ccc(-n3c([C@H](Cc4cc(F)cc(F)c4)NC(=O)Cn4nc(C(F)F)c5c4C(F)(F)[C@@H]4C[C@H]54)nc4nc(C5CCC(F)(F)CC5)cc(NCC5CCOCC5)c4c3=O)c21` (atropisomer, axis not shown; (P)) [Example 431, N-[(1S)-1-[(3P)-3-[4-chloro-3-methanesulfonamido-1-(3-methoxypropyl)-1H-indazol-7-yl]-7-(4,4-difluorocyclohexyl)-5-{[(oxan-4-yl)methyl]amino}-4-oxo-3H,4H-pyrido[2,3-d]pyrimidin-2-yl]-2-(3,5-difluorophenyl)ethyl]-2-[(2S,4R)-9-(difluoromethyl)-5,5-difluoro-7,8-diazatricyclo[4.3.0.0^2,^4]nona-1(6),8-dien-7-yl]acetamide], for which the 50% effective concentration (EC50) in data set [1] is 0.01 nM. Besides, the CC50 at 4 days in data set [2] was greater than 20 nM.

For the compound `Cc1cc(C2CCC(F)(F)CC2)nc2nc([C@H](Cc3cc(F)cc(F)c3)NC(=O)Cn3nc(C(F)F)c4c3C(F)(F)[C@@H]3C[C@H]43)n(-c3ccc(Cl)c4c(NS(C)(=O)=O)nn([C@@H](C)CN5CC(C)(C)OC(C)(C)C5)c34)c(=O)c12` (atropisomer, axis not shown; (P)) [Example 742, N-[(1S)-1-[(3P)-3-{4-chloro-3-methanesulfonamido-1-[(2S)-1-(2,2,6,6-tetramethylmorpholin-4-yl)propan-2-yl]-1H-indazol-7-yl}-7-(4,4-difluorocyclohexyl)-5-methyl-4-oxo-3H,4H-pyrido[2,3-d]pyrimidin-2-yl]-2-(3,5-difluorophenyl)ethyl]-2-[(2S,4R)-9-(difluoromethyl)-5,5-difluoro-7,8-diazatricyclo[4.3.0.0^2,^4]nona-1(6),8-dien-7-yl]acetamide], the EC50 in data set [1] came out at 0.026 nM. In addition, the CC50 at 4 days in data set [2] was greater than 20 nM.

As for `Cc1cc(C2CCC(F)(F)CC2)nc2nc([C@H](Cc3cc(F)cc(F)c3)NC(=O)Cn3nc(C4CC4)c4c3C[C@@H]3C[C@H]43)n(-c3ccc(Cl)c4c(NS(C)(=O)=O)nn(CCN5CCO[C@@H](C(C)C)C5)c34)c(=O)c12` (atropisomer, axis not shown; (P)) [Example 456, N-[(1S)-1-[(3P)-3-(4-chloro-3-methanesulfonamido-1-{2-[(2S)-2-(propan-2-yl)morpholin-4-yl]ethyl}-1H-indazol-7-yl)-7-(4,4-difluorocyclohexyl)-5-methyl-4-oxo-3H,4H-pyrido[2,3-d]pyrimidin-2-yl]-2-(3,5-difluorophenyl)ethyl]-2-[(2S,4S)-9-cyclopropyl-7,8-diazatricyclo[4.3.0.0^2,^4]nona-1(6),8-dien-7-yl]acetamide], the EC50 in data set [1] is 0.01 nM. Also, in data set [2], the CC50 at 4 days was greater than 20 nM.

As for `C[C@H](CN1C[C@H](F)C[C@H](F)C1)n1nc(NS(C)(=O)=O)c2c(Cl)ccc(-n3c([C@H](Cc4cc(F)cc(F)c4)NC(=O)Cn4nc(C(F)F)c5c4C(F)(F)[C@@H]4C[C@H]54)nc4nc(C5CCC(F)(F)CC5)cc(C5CC5)c4c3=O)c21` (atropisomer, axis not shown; (P)) [Example 716, N-[(1S)-1-[(3P)-3-{4-chloro-1-[(2R)-1-[(3R,5S)-3,5-difluoropiperidin-1-yl]propan-2-yl]-3-methanesulfonamido-1H-indazol-7-yl}-5-cyclopropyl-7-(4,4-difluorocyclohexyl)-4-oxo-3H,4H-pyrido[2,3-d]pyrimidin-2-yl]-2-(3,5-difluorophenyl)ethyl]-2-[(2S,4R)-9-(difluoromethyl)-5,5-difluoro-7,8-diazatricyclo[4.3.0.0^2,^4]nona-1(6),8-dien-7-yl]acetamide], the EC50 in data set [1] was found to be 0.035 nM. Also, the CC50 at 4 days in data set [2] is greater than 20 nM.
